Drawing on patent US20240367095A1, “TERTIARY ALKANOLAMINE FOR GAS TREATING” (Dow Global Technologies LLC, priority 2021, published 2024), this text covers pKa for seven compounds.

The pKa is the pH at which an ionisable group is half protonated. Read a low pKa as a stronger acid or weaker base.

This data set in a line: physchem.
The compound `CCCCN(CCO)CC(O)CO` (stereo not shown) [HEBAPD] registered a pKa of 8.54.

As to `CCCN(CCO)CC(O)CO` (stereo not shown) [HEPAPD], the pKa was determined as 8.54.

Consider `CCC(CO)N(C)CC(O)CO` (stereo not shown) [HMPMAPD, 3-[[1-(hydroxymethyl)propyl]methylamino]-1,2-propanediol], for which the pKa is 8.53.

The compound `CCN(CC(O)CO)C(C)CO` (stereo not shown) [EHMEAPD, 3-[ethyl(2-hydroxy-1-methylethyl)amino]-1,2-propanediol] displayed a pKa of 8.62.

On to `CCN(CCO)CC(O)CO` (stereo not shown) [HEEAPD], for which the pKa is 8.54.

For the compound `CN(CCO)CC(O)CO` (stereo not shown) [HEMAPD], the pKa was determined as 8.45.

As to `CC(CO)N(C)CC(O)CO` (stereo not shown) [HMEMAPD, 3-[(2-hydroxy-1-methylethyl)methylamino]-1,2-propanediol], the pKa worked out at 8.53.
